Where a name gives a salt, the structure may show the parent alone.
Key:
Assay in all cases: Antibacterial activity, MIC (agar)
Type in all cases: cell-based
P. mirabilis 889 = conditions: Proteus mirabilis
From the text: (§1) The antibacterial activities of compounds of the present invention (MIC µg/ml)

N. catarrhalis 1502 = test system: N. catarrhalis 1502
From the text: as §1

E. coli NCTC 10418 = conditions: Escherichia coli, NCTC10418
From the text: as §1

Ps. aeruginosa Dalgleish = conditions: Pseudomonas aeruginosa, Ps. aeruginosa Dalgleish 10^-2
From the text: as §1

S. marcescens US 32 = conditions: Serratia marcescens, US32
From the text: as §1

S. aureus Oxford = conditions: Staphylococcus aureus
From the text: as §1

E. coli JT 425 = conditions: Escherichia coli, JT425
From the text: as §1

E. cloacae N1 = conditions: Enterobacter cloacae
From the text: as §1

E. coli ESS = conditions: Escherichia coli
From the text: as §1

S. faecalis I = conditions: Enterococcus faecalis
From the text: as §1

S. aureus Russell = conditions: Staphylococcus aureus
From the text: as §1

P. mirabilis C 977 = conditions: Proteus mirabilis, C977
From the text: as §1

K. aerogenes A = conditions: Klebsiella aerogenes
From the text: as §1

P. rettgeri = conditions: Providencia rettgeri
From the text: as §1

[1] = test system: Ps. aeruginosa NCTC 10662; conditions: Pseudomonas aeruginosa
From the text: as §1

S. pyogenes CN 10 = conditions: Streptococcus pyogenes, CN10
From the text: as §1

E. coli JT 4 = conditions: Escherichia coli, JT4
From the text: as §1

[2] = NCTC10662, Ps. aeruginosa NCTC 10662
[3] = NCTC10662, Ps. aeruginosa NCTC 10662 10^-2

Structure (SMILES)	MIC (P. mirabilis 889)	MIC (N. catarrhalis 1502)	MIC (E. coli NCTC 10418)	MIC (Ps. aeruginosa Dalgleish)	MIC (S. marcescens US 32)	MIC (S. aureus Oxford)	MIC (E. coli JT 425)	MIC (E. cloacae N1)	MIC (E. coli ESS)	MIC (S. faecalis I)	MIC (S. aureus Russell)	MIC (P. mirabilis C 977)	MIC (K. aerogenes A)	MIC (P. rettgeri)	MIC [1, 2]	MIC [1, 3]	MIC (S. pyogenes CN 10)	MIC (E. coli JT 4)
NS(=O)(=O)c1ccc(Nc2ncc(NC(=O)N[C@@H](C(=O)N[C@@H]3C(=O)N4[C@@H](C(=O)O)CS[C@H]34)c3ccc(O)cc3)c(O)n2)cc1 [Example 4, 6β-[D,2-2-(4-Aminosulphonylanilino)-4-hydroxypyrimidyl-5-aminocarbonylamino}-2-(4-hydroxyphenyl)]acetamido-bisnorpenicillanic acid, sodium salt]	> 100 µg/mL	0.05 µg/mL	0.25 µg/mL	25 µg/mL	1 µg/mL	2.5 µg/mL	2.5 µg/mL	2.5 µg/mL	0.05 µg/mL	25 µg/mL	25 µg/mL	2.5 µg/mL	0.25 µg/mL	2.5 µg/mL	2.5 µg/mL	0.5 µg/mL	0.1 µg/mL	100 µg/mL
NS(=O)(=O)c1ccc(Nc2ncc(NC(=O)N[C@@H](C(=O)N[C@@H]3C(=O)N4[C@@H](C(=O)O)CS[C@H]34)c3ccccc3)c(O)n2)cc1 [Example 3, 6β-[D,2-{2-(4-Aminosulphonylanilino)-4-hvdroxypyrimidyl-5-aminocarbonylamino}-2-phenyl]acetamidobisnor penicillanic acid, sodium salt]	> 100 µg/mL	0.05 µg/mL	0.5 µg/mL	50 µg/mL	2.5 µg/mL	1 µg/mL	5 µg/mL	1 µg/mL	0.05 µg/mL	25 µg/mL	50 µg/mL	0.2 µg/mL	0.2 µg/mL	1 µg/mL	5 µg/mL	2.5 µg/mL	0.2 µg/mL	> 100 µg/mL

— patent publication EP0067612A1, “Penicillin derivatives” (BEECHAM GROUP PLC, priority 1981, dated 1982)
